The values below come from patent US20250154123A1, “COOLING COMPOUNDS AND COMPOSITIONS” (V. MANE FILS, priority 2022, published 2025).

Usually EC50 stands for the concentration that produces a half-maximal response. Low readings indicate greater potency, high ones weaker potency.

SMILES strings stand for the structures.

T2 sequence (Q7Z2W7 whole entry): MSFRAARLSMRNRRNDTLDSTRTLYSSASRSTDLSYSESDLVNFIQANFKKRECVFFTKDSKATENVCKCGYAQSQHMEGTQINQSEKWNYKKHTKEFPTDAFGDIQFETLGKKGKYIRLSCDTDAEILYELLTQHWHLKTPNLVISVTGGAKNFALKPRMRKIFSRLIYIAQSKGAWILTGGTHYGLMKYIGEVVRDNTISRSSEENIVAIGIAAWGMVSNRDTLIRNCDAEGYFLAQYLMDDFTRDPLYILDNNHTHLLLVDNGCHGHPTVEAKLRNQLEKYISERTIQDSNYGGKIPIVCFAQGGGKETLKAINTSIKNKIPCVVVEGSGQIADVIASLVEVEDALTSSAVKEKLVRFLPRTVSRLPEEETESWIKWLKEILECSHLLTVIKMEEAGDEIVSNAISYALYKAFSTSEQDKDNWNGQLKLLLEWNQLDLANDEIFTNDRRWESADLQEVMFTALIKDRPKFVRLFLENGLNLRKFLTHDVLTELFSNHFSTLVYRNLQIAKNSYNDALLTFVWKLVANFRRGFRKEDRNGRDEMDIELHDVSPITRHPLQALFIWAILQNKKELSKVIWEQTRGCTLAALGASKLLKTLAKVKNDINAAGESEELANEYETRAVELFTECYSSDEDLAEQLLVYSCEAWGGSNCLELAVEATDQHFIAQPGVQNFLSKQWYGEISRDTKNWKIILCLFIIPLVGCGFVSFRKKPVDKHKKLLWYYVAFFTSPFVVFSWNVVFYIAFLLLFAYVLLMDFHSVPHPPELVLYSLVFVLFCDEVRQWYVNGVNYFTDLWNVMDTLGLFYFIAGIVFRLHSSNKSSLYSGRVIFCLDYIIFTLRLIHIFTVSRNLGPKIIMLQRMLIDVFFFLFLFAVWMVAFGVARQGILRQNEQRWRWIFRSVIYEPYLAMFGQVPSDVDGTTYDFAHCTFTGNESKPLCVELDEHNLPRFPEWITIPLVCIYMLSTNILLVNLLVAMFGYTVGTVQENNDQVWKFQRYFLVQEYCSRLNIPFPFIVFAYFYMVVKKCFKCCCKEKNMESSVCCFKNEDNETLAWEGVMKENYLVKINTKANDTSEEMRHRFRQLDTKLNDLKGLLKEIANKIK
T1 sequence (Q7Z2W7 whole entry): as above

One assay has as its target T1, hTRPM8 ion channel (Homo sapiens, UniProt Q7Z2W7).
T1 construct: expressed in transfected cells; host or cells: CHO-KJ cells [sic]
As to the kind of experiment: Primary in vitro screening on hTRPM8 (CHO-KJ cells, FLUO-8 calcium fluorometry, relative to icilin). It counts as cell-based. The following applies: CHO-KJ cells expressing hTRPM8. As for the experimental part: (§1) The compounds were evaluated in vitro on CHO-KJ cells expressing the gene encoding the hTRPM8 ion channel (Table 1). Channel activation is determined by fluorometric measurement of […] calcium using FLUO-8. The activity of the compounds was measured relative to icilin (known hTRPM8 agonist).
As to `CCOC(=O)CNC(=O)[C@@H]1C[C@H](C)CC[C@H]1C(C)C` [WS-5 ™, reference compound], the “% activation vs iciline” value turned out to be 73%. `CC(C)[C@@H]1CC[C@@H](C)C[C@H]1OC(=O)CCC(=O)O` [Physcool ™, reference compound]: the “% activation vs iciline” value is -2%.

The same assay, now with this note: concentration 101 μM; CHO-KJ cells expressing hTRPM8.
As for `CCC1OCC2(CO1)C[C@H](C)CC[C@H]2C(C)C` (stereo partly drawn) [Compound 4, (7S,1OR)-3-ethyl-7-isopropyl-10-methyl-2,4-dioxaspiro[5.5]undecane], the “% activation vs iciline” value is given as 39%.

The same assay, now with this note: concentration 104 μM; CHO-KJ cells expressing hTRPM8.
Consider `CC(C)[C@@H]1CC[C@@H](C)CC12COCOC2` [Compound 6, (7S,1OR)-7-isopropyl-10-methyl-2,4-dioxaspiro[5.5]undecane], for which the “% activation vs iciline” value is listed as 32%.

Still in this assay, the particulars now being: concentration 109 μM; CHO-KJ cells expressing hTRPM8.
As for `CC1OCC2(CO1)C[C@H](C)CC[C@H]2C(C)C` (stereo partly drawn) [Compound 2, (7S,1OR)-7-isopropyl-3,10-dimethyl-2,4-dioxaspiro[5.5]undecane], the “% activation vs iciline” value amounted to 26%.

Staying with this assay, now noted: concentration 114 μM; CHO-KJ cells expressing hTRPM8.
In the case of `CC(C)[C@@H]1CC[C@@H](C)C[C@H]1O` [l-menthol, reference compound], the “% activation vs iciline” value amounted to 78%.

Still in this assay, the particulars now being: concentration 116 μM; CHO-KJ cells expressing hTRPM8.
Consider `CC1CCC(C(C)C)C(OC(=O)C(C)O)C1` (stereo not drawn) [menthyl lactate, reference compound], for which the “% activation vs iciline” value is given as 53%.

The assay is the same for the next values; noted with them: concentration 119 μM; CHO-KJ cells expressing hTRPM8.
Regarding `CCNC(=O)C1CC(C)CCC1C(C)C` (stereo not drawn) [WS-3 ™, reference compound], the “% activation vs iciline” value is given as 76%.

Staying with this assay, now noted: concentration 123 μM; CHO-KJ cells expressing hTRPM8.
For the compound `C=C(C)[C@@H]1CC[C@@H](C)C[C@H]1O` [l-isopulegol, reference compound], the “% activation vs iciline” value is on record as 51%.

A further assay addresses T2, hTRPM8 (Homo sapiens, UniProt Q7Z2W7).
T2 construct: expressed in transfected cells; host or cells: CHO-KJ cells [sic]
As to the kind of experiment: Secondary in vitro screening on hTRPM8 at 5 μM versus WS-3. The following applies: WS3 as reference compound. It counts as cell-based. As for the experimental part: as §1
The compounds 1 to 40 were tested on hTRPM8 at 5 μM using WS3 as the reference compound (Table 2).
Turning to `C=C(C)[C@@H]1CC[C@@H](C)C[C@H]1C1COC(C)OC1` (stereo partly drawn) [Compound 36, 2-methyl-5-((1R,2R,5R)-5-methyl-2-(prop-1-en-2-yl)cyclohexyl)-1,3-dioxane], the activation at 5 µM was found to be 6%. For `CSCCC1OCC2(CO1)C[C@H](C)CC[C@H]2C(C)C` (stereo partly drawn) [Compound 25, (7S,1OR)-7-isopropyl-10-methyl-3-(2-(methylthio)ethyl)-2,4-dioxaspiro [5.5]undecane], the activation at 5 µM is 3%.

`CC(C)[C@@H]1CC[C@@H](C)CC12COC(C)(c1ccccc1)OC2` (stereo partly drawn) [Compound 22, (7S,1OR)-7-isopropyl-3,10-dimethyl-3-phenyl-2,4-dioxaspiro[5.5]undecane]: the activation at 5 µM amounted to 13%. `CCC1(C)OCC2(CO1)C[C@H](C)CC[C@H]2C(C)C` (stereo partly drawn) [Compound 13, (7S,1OR)-3-ethyl-7-isopropyl-3,10-dimethyl-2,4-dioxaspiro[5.5]undecane]: the activation at 5 µM turned out to be 1%.

On to `COCC1(COC)C[C@H](C)CC[C@H]1C(C)C` [Compound 17, (2S,5R)-2-isopropyl-1,1-bis(methoxymethyl)-5-methylcyclohexane], for which the activation at 5 µM turned out to be 1%. In the case of `CC(C)[C@@H]1CC[C@@H](C)CC1(CO)COCc1ccccc1` (stereo partly drawn) [Compound 38, ((2S,5R)-1-((benzyloxy)methyl)-2-isopropyl-5-methylcyclohexyl) methanol], the activation at 5 µM came out at 8%. Same read-out and setting: with `CC(C)[C@@H]1CC[C@@H](C)CC1(C=O)C=O` [Compound 8, (2S,5R)-2-isopropyl-5-methylcyclohexane-1,1-dicarbaldehyde] the figure was 6%. With `CC1(C)CC(C)(C)CC(CO)(CO)C1` [Compound 40, (3,3,5,5-tetramethylcyclohexane-1,1-diyl)dimethanol], the activation at 5 µM came out at 8%. `CC(C)[C@@H]1CC[C@@H](C)CC12COC(c1ccccc1)OC2` (stereo partly drawn) [Compound 18, (7S,1OR)-7-isopropyl-10-methyl-3-phenyl-2,4-dioxaspiro[5.5]undecane]: the activation at 5 µM turned out to be 3%.

Regarding `CCC1OCC2(CO1)C[C@H](C)CC[C@H]2C(C)C` (stereo partly drawn) [Compound 4, (7S,1OR)-3-ethyl-7-isopropyl-10-methyl-2,4-dioxaspiro[5.5]undecane], the activation at 5 µM is -1%. `CCC(C)C1CCCCC1(CO)CO` (stereo not drawn) [Compound 27, (2-(sec-butyl)cyclohexane-1,1-diyl)dimethanol]: the activation at 5 µM is 40%. In the case of `CC1CC(C)(C)CC2(COC(C)OC2)C1` (stereo not drawn) [Compound 11, 3,8,8,10-tetramethyl-2,4-dioxaspiro[5.5]undecane], the activation at 5 µM stood at 3%. Take `CC(C)C1OCC2(CO1)C[C@H](C)CC[C@H]2C(C)C` (stereo partly drawn) [Compound 15, (7S,1OR)-3,7-diisopropyl-10-methyl-2,4-dioxaspiro[5.5]undecane]: the activation at 5 µM is -6%. With `CC1OCC2(CO1)CC(C)(C)CCC2C(C)C` (stereo not drawn) [Compound 33, 7-isopropyl-3,10,10-trimethyl-2,4-dioxaspiro[5.5]undecane], the activation at 5 µM is 1%. As to `CC(C)[C@@H]1CC[C@@H](C)CC12COC(c1ccccn1)OC2` (stereo partly drawn) [Compound 23, 2-((7S,10R)-7-isopropyl-10-methyl-2,4-dioxaspiro[5.5]undecan-3-yl) pyridine], the activation at 5 µM turned out to be 4%. On the same count and under the same terms, with `CC(C)[C@@H]1CC[C@@H](C)C[C@H]1C(CO)CO` [Compound 37, 2-((1R,2S,5R)-2-isopropyl-5-methylcyclohexyl)propane-1,3-diol] the figure was 65%; with `CC(C)[C@@H]1CC[C@@H](C)CC1(C(C)O)C(C)O` (stereo partly drawn) [Compound 34, 1,1′-((2S,5R)-2-isopropyl-5-methylcyclohexane-1,1-diyl)bis(ethan-1-ol)], 21%. Turning to `CC1OCC2(CCCC(C)(C)C2)CO1` (stereo not drawn) [Compound 26, 3,8,8-trimethyl-2,4-dioxaspiro[5.5]undecane], the activation at 5 µM came out at 3%. The same measure, in the same setting: to `CC(C)[C@@H]1CC[C@@H](C)CC1(CO)C(=O)O` (stereo partly drawn) [Compound 39, (2S,5R)-1-(hydroxymethyl)-2-isopropyl-5-methylcyclohexane-1-carboxylic acid] belongs 16%; to `CC(C)[C@@H]1CC[C@@H](C)CC1(CCO)CCO` [Compound 29, 2,2′-((2S,5R)-2-isopropyl-5-methylcyclohexane-1,1-diyl)bis(ethan-1-ol)], 26%. Regarding `CC(C)[C@@H]1CC[C@@H](C)CC1(COC(=O)CCC(=O)O)COC(=O)CCC(=O)O` [Compound 21, 4,4′-((((2S,5R)-2-isopropyl-5-methylcyclohexane-1,1-diyl)bis (methylene))bis(oxy))bis(4-oxobutanoic acid)], the activation at 5 µM is -2%. With `CC1(C)CCCC(CO)(CO)C1` [Compound 20, (3,3-dimethylcyclohexane-1,1-diyl)dimethanol], the activation at 5 µM stood at 4%.

As to `CC(=O)OCC1(COC(C)=O)C[C@H](C)CC[C@H]1C(C)C` [Compound 9, ((2S,5R)-2-isopropyl-5-methylcyclohexane-1,1-diyl)bis(methylene) diacetate], the activation at 5 µM stood at 0%.

For `CC1CC(C)(C)CC2(COC(C)(C)OC2)C1` (stereo not drawn) [Compound 12, 3,3,8,8,10-pentamethyl-2,4-dioxaspiro[5.5]undecane], the activation at 5 µM was 1%. With `CCC(C)C1CCCCC12COC(C)OC2` (stereo not drawn) [Compound 31, 7-(sec-butyl)-3-methyl-2,4-dioxaspiro[5.5]undecane], the activation at 5 µM is -2%. As for `CC(C)[C@@H]1CC[C@@H](C)CC12COCOC2` [Compound 6, (7S,1OR)-7-isopropyl-10-methyl-2,4-dioxaspiro[5.5]undecane], the activation at 5 µM worked out at 3%. As for `C=C(C)[C@@H]1CC[C@@H](C)C[C@H]1C(CO)CO` [Compound 35, 2-((1R,2R,5R)-5-methyl-2-(prop-1-en-2-yl)cyclohexyl)propane-1,3-diol], the activation at 5 µM came to 14%. On to `CC(C)C1CCC(C)(C)CC1(CO)CO` (single isomer, unassigned) [Compound 30, (2-isopropyl-5,5-dimethylcyclohexane-1,1-diyl)dimethanol], for which the activation at 5 µM was determined as 71%.

As for `CC(=O)OCC1(CO)C[C@H](C)CC[C@H]1C(C)C` (stereo partly drawn) [Compound 32, ((2S,5R)-1-(hydroxymethyl)-2-isopropyl-5-methylcyclohexyl)methyl acetate], the activation at 5 µM was 4%.

As to `CC1CC(C)(C)CC(CO)(CO)C1` (stereo not drawn) [Compound 10, (3,3,5-trimethylcyclohexane-1,1-diyl)dimethanol], the activation at 5 µM amounted to 10%. `CCC(C)C1OCC2(CO1)C[C@H](C)CC[C@H]2C(C)C` (stereo partly drawn) [Compound 16, (7S,1OR)-3-(sec-butyl)-7-isopropyl-10-methyl-2,4-dioxaspiro[5.5]undecane]: the activation at 5 µM is -1%. Same read-out and setting: to `CCOC(=O)C1OCC2(CO1)C[C@H](C)CC[C@H]2C(C)C` (stereo partly drawn) [Compound 28, Ethyl (7S,1OR)-7-isopropyl-10-methyl-2,4-dioxaspiro[5.5]undecane-3-carboxylate] belongs 5%; to `CC(C)[C@@H]1CC[C@@H](C)CC12COC1(C[C@H](C)CC[C@H]1C(C)C)OC2` (stereo partly drawn) [Compound 7, (1S,4R,10S,13R)-1,10-diisopropyl-4,13-dimethyl-7,16-dioxadispiro [5.2.5^90.2^6]hexadecane], 0%. With `CC1OCC2(CO1)C[C@H](C)CC[C@H]2C(C)C` (stereo partly drawn) [Compound 2, (7S,1OR)-7-isopropyl-3,10-dimethyl-2,4-dioxaspiro[5.5]undecane], the activation at 5 µM is 3%. The same measure, in the same setting: to `CCCC1OCC2(CO1)C[C@H](C)CC[C@H]2C(C)C` (stereo partly drawn) [Compound 14, (7S,1OR)-7-isopropyl-10-methyl-3-propyl-2,4-dioxaspiro[5.5]undecane] belongs -1%; to `CC(C)[C@@H]1CC[C@@H](C)CC12COC(c1cccs1)OC2` (stereo partly drawn) [Compound 24, (7S,1OR)-7-isopropyl-10-methyl-3-(thiophen-2-yl)-2,4-dioxaspiro[5.5]undecane], 3%.

In a further assay the target is T2, hTRPM8. As to the kind of experiment: EC50 measurement on hTRPM8 (response curve). It counts as cell-based. The following applies: hTRPM8, response curve. As for the experimental part:
as §1
A response curve was developed for compounds 1, 3, 5 and 37 which made it possible to determine the EC50 (half maximal effective concentration) values on hTRPM8 and compare them with the EC50 values of the comparative compounds (Table 3).
`CC(C)[C@@H]1CC[C@@H](C)C[C@H]1C(CO)CO` [Compound 37, 2-((1R,2S,5R)-2-isopropyl-5-methylcyclohexyl)propane-1,3-diol] displayed a 50% effective concentration (EC50) of 70 µM. With `CCNC(=O)C1CC(C)CCC1C(C)C` (stereo not drawn) [WS-3 ™, reference compound], the EC50 is 8 µM. `CCOC(=O)CNC(=O)[C@@H]1C[C@H](C)CC[C@H]1C(C)C` [WS-5 ™, reference compound] yielded an EC50 of 1 µM.
